Test results: BindingDB's records for doi:10.1016/j.ejmech.2018.09.061 (Anhui University of Chinese Medicine, 2018)
pIC50: −log10 of the molar value.

Experiment: Inhibition of MDR1 in human KB/VCR cells assessed as potentiation of vincristine-induced cytotoxicity by measuring vincristine IC50 at 25 uM after 72 hrs by Western blot analysis (Rvb = 4.21 +/- 0.33 uM)

For `CC(C)C(=O)OC(C)(C)[C@@H]1Cc2c(ccc3ccc(=O)oc23)O1`, the pIC50 was 6.25.
